Laboratory results: patent US20110152166A1, “METHOD OF MODULATION OF PROTEIN PHOSPHORYLATION-DEPENDENT CONFORMATIONAL TRANSITIONS WITH LOW MOLECULAR WEIGHT COMPOUNDS” (priority 2006, published 2011)
Ends that are not written are not given here.

Legend:
[1] = biological target: T1, S6K11-364K144N (Rattus norvegicus, UniProt P67999, K167N); assay: S6K1 in vitro reconstitution kinase assay with tail peptides; format: biochemical; details: peptide 90 μM
T1 construct: Purified HA-S6K1-364 was incubated with synthetic S6K1 (rat) tail peptides; made in house; host or cells: COS7; anti-HA immunoprecipitate
T1 sequence (P67999 24-387 K167N): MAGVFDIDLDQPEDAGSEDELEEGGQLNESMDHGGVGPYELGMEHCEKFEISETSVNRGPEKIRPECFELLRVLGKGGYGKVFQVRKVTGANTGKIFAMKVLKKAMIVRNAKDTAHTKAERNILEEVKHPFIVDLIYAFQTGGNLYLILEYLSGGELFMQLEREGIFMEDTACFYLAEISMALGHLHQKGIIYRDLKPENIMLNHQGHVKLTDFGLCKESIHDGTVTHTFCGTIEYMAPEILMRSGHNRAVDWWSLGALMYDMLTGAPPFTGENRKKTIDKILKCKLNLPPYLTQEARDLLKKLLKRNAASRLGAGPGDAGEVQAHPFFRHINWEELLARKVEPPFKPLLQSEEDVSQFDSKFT
Experimental: FIG. 13. The tail phosphate synergistically enhances the ability of the HM phosphate to activate S6K, dependent on the tail phosphate-binding site. (A) The kinase activity of purified kinase domain of S6K1 (S6K11-364), pre-phosphorylated by PDK1 in the activation loop, was determined in the presence of increasing concentrations of synthetic S6K1 tail peptide (residues 366-395) that was either non-phosphorylated (S371/T389), phosphorylated at Ser371 (pS371/T389) or Thr389 (5371/pT389) or phosphorylated at both sites (pS371/pT389). (B) The kinase activity of S6K11-364 and S6K11-364K144N, either pre-phosphorylated or not by PDK1, was determined in the absence or presence of 90 μM S371/pT389 or pS371/pT389. (C) pS371/pT389 S6K1 tail peptide was biotinylated and used to coat streptavidin Sensor Chips. The chips were thereafter analyzed for binding to purified GST-S6K11-365 or GST-56K11-365K144N. (A-C) Experiments were repeated at least 3 times and activity data (expressed as percent) are means±SD.
We established an in vitro reconstitution assay that could test a direct activation of the AGC kinase domain by the tail phosphate and characterize its cooperation with the HM and activation loop phosphates. […] Subsequently, the kinase activity of S6K11-364 was determined. […]

[2] = biological target: T2, GST-PDK1 [Phe157Leu] (Homo sapiens, UniProt O15530, F157L); assay: PDK1 activity assay with T308tide; format: biochemical
T2 construct: different protein constructs, comprising the full length protein or the catalytic domain alone; made in house; host or cells: HEK293 cells (pEBG-2T-PDK1 mutant)
T2 sequence (O15530 whole entry F157L, the tested form may be a part): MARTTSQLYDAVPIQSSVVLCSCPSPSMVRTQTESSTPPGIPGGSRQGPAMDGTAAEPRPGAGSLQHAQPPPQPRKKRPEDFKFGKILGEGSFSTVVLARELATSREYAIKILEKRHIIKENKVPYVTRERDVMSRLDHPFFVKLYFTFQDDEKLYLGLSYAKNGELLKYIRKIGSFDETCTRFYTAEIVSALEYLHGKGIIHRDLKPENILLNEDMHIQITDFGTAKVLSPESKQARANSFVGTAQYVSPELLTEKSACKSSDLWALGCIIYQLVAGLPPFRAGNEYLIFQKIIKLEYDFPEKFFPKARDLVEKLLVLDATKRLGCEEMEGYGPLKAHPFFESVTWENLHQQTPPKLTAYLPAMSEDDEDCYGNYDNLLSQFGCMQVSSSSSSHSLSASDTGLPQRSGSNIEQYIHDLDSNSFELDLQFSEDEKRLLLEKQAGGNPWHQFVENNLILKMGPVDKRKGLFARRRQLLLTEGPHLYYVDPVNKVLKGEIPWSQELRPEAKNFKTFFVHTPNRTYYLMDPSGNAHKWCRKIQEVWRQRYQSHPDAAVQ

| activation of S6K11-364K144N (in words) [1] | AC50 [2] | Max. activity [2] | Substance |
| --- | --- | --- | --- |
| activated normally | – | – | S371/pT389: synthetic S6K1 tail peptide (residues 366-395) phosphorylated in the HM |
| – | 0.32 ± 0.19 µM | 1.4 ± 0.14 U/mg | REPRILSEEEQEMFRDFDYIADWC [PIFtide, reference compound] |
